Bridge positions count the residues as written; N and C are the ends. Peptide text beside a SMILES is read from it.
Assays:
[1] = In vitro release of PXL01 from sodium hyaluronate gel; type: physicochemical; conditions: 6 mg/ml PXL01 in 1.5% sodium hyaluronate, 37° C., PBS pH 7.4, within 1 hour
Procedure: (§1) PXL01 dissolved in sodium chloride solution was added to 2.5% sodium hyaluronate solution at a volume ratio of 2/5 PXL01 solution and 3/5 sodium hyaluronate solution, to obtain 1.5 or 6 mg/ml PXL01 in 1.5% sodium hyaluronate. The solutions were homogenized by drawing the mixtures several times through 2.1 mm diameter needles.
0.25 ml of the formulated product was placed into the well of the tissue culture plate (24-Flat Well Tissue Culture Plate, Techno Plastic Products AG), resulting in a thin film of approximately 1.3 mm. The plates were placed into thermostat (37° C.) for 1 h to allow the product to reach the temperature of 37° C. 0.5 ml of the release medium (PBS, pH 7.4) re-equilibrated at 37° C. was carefully layered over the surface of the gel and the tissue culture plates were transferred into a thermostatic shaker (60 rpm, 37° C.). At predetermined time intervals, 10 microl aliquots of the aqueous solution were withdrawn from the release media. The concentration of PXL01 released was monitored at wavelength of 230 nm using a spectrophotometric measurement. Because the measurement of absorbance at 230 nm could detect the peptide as well as dissolved sodium hyaluronate in the release medium, a control release medium was used which has the same amount of sodium hyaluronate without any PXL01 as that of sodium hyaluronate with the drug.

[2] = test system: post-surgical intra-abdominal adhesions; assay: Sidewall defect-cecum abrasion model in rat (post-surgical adhesion prevention); type: in vivo, Sprague-Dawley rats; conditions: for adhesion formation compared with control group: rat, 6 days after surgery
Procedure: Female Sprague-Dawley rats (200-250 g, Charles River Laboratories, Sulzfeldt, Germany) were kept in a 12 hours light-dark cycle and were cared for in accordance with regulations for the protection of laboratory animals. The study was performed after prior approval from the local ethical committee.
Cecum abrasion and excision of the abdominal wall were performed to induce de novo adhesions as described previously (Harris et al. 1995. Analysis of the kinetics of peritoneal adhesion formation in the rat and evaluation of potential antiadhesive agents. Surgery 117, 663-669). Briefly, the rats were anaesthetized with isoflurane (Isoba®vet, Shering-Plough Animal Health, Farum, Denmark) and buprenorfin (48 microg/kg, Temgesic, Shering-Plough, Brussels, Belgium) was given as post-operative pain reliever. A 5-cm-long midline incision of the abdomen was performed and a rectangle full thickness injury (5 mm×25 mm) was made on the peritoneal wall through both the parietal peritoneum and the muscular fascia. Also, an area of the serous membrane on the both sides of the cecum, approximately 10 mm×15 mm, was gently rubbed using cotton gauze until petechial hemorrhages appeared. The rats were randomized to untreated control group or treated groups. Excessive blood from the injury was removed and the test substance was applied over the abraded areas using a syringe. The laparotomy wound was closed with a continuous suture and the skin was closed with metal clips (Appose ULC35W, TycoHealthcare Group LP, Norwalk, Conn., US). […] The abdomen was opened and the adhesions were scored by an evaluator blinded to the treatment. The incidence of adhesions between abdominal incision and the abraded cecum was quantified as a percentage of animals developing wall to wall adhesions connecting these injuries, in each group. […] Finally, the percentage of rats free from any abdominal adhesions was assessed in each group. Any possible signs of peritoneal inflammation (erythema and/or edema) or disrupted wound healing were recorded in connection to the necropsies. […]

[3] = Solubility and stability of PXL01 in sodium hyaluronate; type: physicochemical
Procedure: as §1
PXL01 concentration and homogeneity in sodium hyaluronate were determined by high performance liquid chromatography with UV detector (Agilent model 1100) at 220 nm. The analytical column used was a Vydac 218TP (C18, 5 μm, 250×4.6 mm). The mobile phases used (0.1% TFA in water containing 1% acetonitrile (solvent A) and 0.1% TFA in acetonitrile (solvent B)) were run at a gradient with a flow rate of 1.0 ml/min. Diluted PXL01 standards were applied to create calibration curves.
Samples were prepared by adding hyaluronidase solution (Hyaluronidase from Streptomyces hyalurolyticus, Sigma-Aldrich, St Louis, Mo.) with an enzyme activity of 500 units/ml to sample solutions. The mixtures were agitated for 2 h at room temperature and samples were diluted as needed with TFA in water, followed by additional mixing. The samples were centrifuged at 7000 rpm for 5 min before injection to the column.

PXL01 released from the sodium hyaluronate gel formulation (cumulative drug released) [1]: approximately 70% | solubility in sodium hyaluronate [3]: readily soluble | stability in sodium hyaluronate [3]: sufficiently stable
Structure (SMILES): CC[C@H](C)[C@H](NC(=O)[C@@H]1CSSC[C@H](NC(=O)[C@H](CCCCN)NC(=O)[C@@H](NC(=O)[C@H](C)NC(=O)[C@H](CCC(=O)O)NC(C)=O)[C@@H](C)O)C(=O)N[C@@H](Cc2ccccc2)C(=O)N[C@@H](CCC(N)=O)C(=O)N[C@@H](Cc2c[nH]c3ccccc23)C(=O)N[C@@H](CCC(N)=O)C(=O)N[C@@H](CCCNC(=N)N)C(=O)N[C@@H](CC(N)=O)C(=O)N[C@@H](CCSC)C(=O)N[C@@H](CCCNC(=N)N)C(=O)N[C@@H](CCCCN)C(=O)N[C@@H](C(C)C)C(=O)N[C@@H](CCCNC(=N)N)C(=O)NCC(=O)N2CCC[C@H]2C(=O)N2CCC[C@H]2C(=O)N[C@@H](C(C)C)C(=O)N[C@@H](CO)C(=O)N1)C(=O)N[C@@H](CCCCN)C(=O)N[C@@H](CCCNC(=N)N)C(N)=O [PXL01] (Ac-EATKCFQWQRNMRKVRGPPVSCIKR-NH2; disulfide 5-22)
adhesion formation compared with control group ([2]; 3 mg of PXL01 in water solution, single dose in connection to the surgery): No significant reduction | adhesion formation compared with control group ([2]; 3 doses of 1 mg of PXL01 in water solution (at operation, 24 and 48 h post-surgery)): marked reduction | adverse events (listlessness, peritoneal inflammation, inhibition of wound healing) ([2]; rats treated with PXL01 at any concentration): No obvious adverse events
